{"source": "paper PMC2861344", "about": "(Neuropharmacology, 2010)", "key": {"[1]": {"molecular_target": "T1, NR1aNR2A NMDA receptor (NR2A subunit) (Rattus norvegicus, UniProt P35439+Q00959)", "T1 sequence (Q00959 23-1464, other chains not shown)": "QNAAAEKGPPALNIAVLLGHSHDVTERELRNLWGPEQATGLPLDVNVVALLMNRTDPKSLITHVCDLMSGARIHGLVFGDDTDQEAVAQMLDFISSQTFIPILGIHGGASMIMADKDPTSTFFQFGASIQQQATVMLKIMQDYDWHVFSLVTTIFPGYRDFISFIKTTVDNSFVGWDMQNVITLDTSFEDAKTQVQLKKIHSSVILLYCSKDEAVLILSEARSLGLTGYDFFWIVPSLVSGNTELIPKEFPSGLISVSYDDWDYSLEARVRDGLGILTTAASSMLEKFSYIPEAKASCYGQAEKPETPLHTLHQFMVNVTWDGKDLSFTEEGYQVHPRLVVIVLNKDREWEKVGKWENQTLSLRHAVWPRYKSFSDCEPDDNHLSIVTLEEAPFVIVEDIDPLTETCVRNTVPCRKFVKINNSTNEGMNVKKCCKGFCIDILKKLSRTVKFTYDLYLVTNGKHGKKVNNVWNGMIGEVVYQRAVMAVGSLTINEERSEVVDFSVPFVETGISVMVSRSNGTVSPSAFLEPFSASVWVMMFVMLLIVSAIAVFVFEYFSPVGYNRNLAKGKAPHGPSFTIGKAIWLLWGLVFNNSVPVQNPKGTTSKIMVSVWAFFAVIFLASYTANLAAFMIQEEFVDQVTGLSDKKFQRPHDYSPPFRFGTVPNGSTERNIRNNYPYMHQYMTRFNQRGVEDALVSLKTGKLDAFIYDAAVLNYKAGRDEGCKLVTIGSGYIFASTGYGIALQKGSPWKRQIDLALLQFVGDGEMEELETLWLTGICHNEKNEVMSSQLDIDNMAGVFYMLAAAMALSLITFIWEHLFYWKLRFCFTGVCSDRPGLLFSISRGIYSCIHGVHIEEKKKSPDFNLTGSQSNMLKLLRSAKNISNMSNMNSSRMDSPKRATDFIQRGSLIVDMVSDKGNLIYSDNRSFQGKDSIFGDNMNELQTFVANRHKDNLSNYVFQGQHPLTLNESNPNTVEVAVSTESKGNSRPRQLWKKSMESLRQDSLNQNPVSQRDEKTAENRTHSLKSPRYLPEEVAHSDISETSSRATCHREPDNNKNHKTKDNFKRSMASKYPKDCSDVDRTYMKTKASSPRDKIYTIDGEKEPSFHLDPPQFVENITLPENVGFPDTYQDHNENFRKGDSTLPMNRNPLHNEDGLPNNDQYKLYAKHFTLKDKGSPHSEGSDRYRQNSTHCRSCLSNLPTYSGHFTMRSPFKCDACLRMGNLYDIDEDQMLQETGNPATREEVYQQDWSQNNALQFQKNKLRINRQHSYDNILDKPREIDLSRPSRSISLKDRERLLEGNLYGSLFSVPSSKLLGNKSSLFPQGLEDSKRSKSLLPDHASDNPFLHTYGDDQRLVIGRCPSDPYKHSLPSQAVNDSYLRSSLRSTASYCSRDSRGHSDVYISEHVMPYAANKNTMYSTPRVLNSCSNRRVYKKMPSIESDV", "assay": "whole-cell patch clamp, agonist concentration-response", "type": "cell-based"}, "[2]": {"molecular_target": "T2, NR1aNR2B NMDA receptor (NR2B subunit) (Rattus norvegicus, UniProt P35439+Q00960)", "T2 sequence (Q00960 27-1482, other chains not shown)": "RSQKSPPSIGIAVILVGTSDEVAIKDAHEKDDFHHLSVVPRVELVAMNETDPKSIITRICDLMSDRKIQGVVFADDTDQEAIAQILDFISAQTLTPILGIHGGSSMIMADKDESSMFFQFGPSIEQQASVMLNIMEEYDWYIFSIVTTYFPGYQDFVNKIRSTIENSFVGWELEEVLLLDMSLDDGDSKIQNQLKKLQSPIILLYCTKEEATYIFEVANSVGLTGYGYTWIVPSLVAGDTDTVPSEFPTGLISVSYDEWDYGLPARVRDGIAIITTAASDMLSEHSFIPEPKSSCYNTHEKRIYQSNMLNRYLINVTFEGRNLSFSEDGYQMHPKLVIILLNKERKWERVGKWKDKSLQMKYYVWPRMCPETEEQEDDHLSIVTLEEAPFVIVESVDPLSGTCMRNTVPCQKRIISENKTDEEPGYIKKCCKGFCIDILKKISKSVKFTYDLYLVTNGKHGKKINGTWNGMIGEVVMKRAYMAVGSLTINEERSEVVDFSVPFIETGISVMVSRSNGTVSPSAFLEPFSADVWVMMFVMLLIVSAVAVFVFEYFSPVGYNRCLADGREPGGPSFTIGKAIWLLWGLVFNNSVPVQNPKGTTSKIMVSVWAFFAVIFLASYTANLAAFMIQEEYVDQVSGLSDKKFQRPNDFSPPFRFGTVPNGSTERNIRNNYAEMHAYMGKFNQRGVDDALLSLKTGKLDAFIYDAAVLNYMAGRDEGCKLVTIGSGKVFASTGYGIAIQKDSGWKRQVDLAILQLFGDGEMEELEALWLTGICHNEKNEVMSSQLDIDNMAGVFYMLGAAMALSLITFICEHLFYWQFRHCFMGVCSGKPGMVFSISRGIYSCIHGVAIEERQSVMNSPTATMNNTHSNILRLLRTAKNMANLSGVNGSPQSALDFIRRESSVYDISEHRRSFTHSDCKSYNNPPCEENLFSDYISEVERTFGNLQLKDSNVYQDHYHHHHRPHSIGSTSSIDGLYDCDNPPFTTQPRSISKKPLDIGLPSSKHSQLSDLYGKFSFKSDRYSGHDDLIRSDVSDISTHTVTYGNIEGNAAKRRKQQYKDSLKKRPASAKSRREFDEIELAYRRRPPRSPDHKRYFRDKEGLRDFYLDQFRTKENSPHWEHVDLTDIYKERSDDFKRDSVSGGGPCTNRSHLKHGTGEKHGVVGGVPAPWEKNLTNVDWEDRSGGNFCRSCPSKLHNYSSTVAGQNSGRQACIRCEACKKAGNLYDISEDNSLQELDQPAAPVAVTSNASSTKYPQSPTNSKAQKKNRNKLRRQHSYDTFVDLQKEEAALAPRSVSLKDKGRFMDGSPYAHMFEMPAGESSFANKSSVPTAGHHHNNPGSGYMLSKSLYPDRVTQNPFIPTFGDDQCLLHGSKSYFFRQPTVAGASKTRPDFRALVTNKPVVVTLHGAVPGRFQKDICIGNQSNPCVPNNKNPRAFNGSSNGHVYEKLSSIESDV", "assay": "whole-cell patch clamp, agonist concentration-response", "type": "cell-based"}, "[3]": {"tested_on": "NMDA receptor (native, hippocampal neurons)", "type": "cell-based, Mus musculus"}, "[4]": {"molecular_target": "T1, NR1aNR2A NMDA receptor (NR2A subunit)", "assay": "whole-cell patch clamp, inhibition of EC30 NMDA current", "type": "cell-based", "conditions": "read-out: % inhibition at 100 μM"}, "[5]": {"molecular_target": "T2, NR1aNR2B NMDA receptor (NR2B subunit)", "assay": "whole-cell patch clamp, inhibition of EC30 NMDA current", "type": "cell-based", "conditions": "read-out: % inhibition at 100 μM"}}, "data": [{"smiles": "CN[C@H](CC(=O)O)C(=O)O", "note": "[NMDA]", "values": [{"measurement": "EC50", "setting": "[1]", "result": "44 ± 5.6", "unit": "µM"}, {"measurement": "EC50", "setting": "[2]", "result": "14 ± 1.3", "unit": "µM"}]}, {"smiles": "O=c1c(-c2ccc(O)cc2)coc2cc(O)ccc12", "note": "[daidzein, 4′,7-dihydroxyisoflavone]", "values": [{"measurement": "% of control current at 100 μM", "setting": "[3]", "result": "68 ± 1.6"}]}, {"smiles": "O=c1c(-c2ccc(O)cc2)coc2cc(O)cc(O)c12", "note": "[genistein]", "values": [{"measurement": "inhibition at 100 µM", "setting": "[4]", "result": "20 ± 1.4", "unit": "%"}, {"measurement": "inhibition at 100 µM", "setting": "[5]", "result": "26 ± 2", "unit": "%"}]}]}
